Where two headings read alike, the source gives them in different places.
How the values were obtained:
[1] = molecular target: T1, Concanavalin A (Con A) (Canavalia ensiformis, UniProt P02866); assay: biochemical; type: binding
T1 construct: purchased Sigma
Description: Fluorescence spectra were recorded with a Shimadzu spectrofluorometer (Japan). The emission spectra of the tryptophan residues were recorded in a 1-cm quartz cell (Hellma Analytics, Germany). To avoid the measurement of the Tyr emission, the protein sample was excited at λ=295 nm with a slit width of 1.0 nm. Total fluorescence was calculated after the normalization of the fluorescence spectra and correction for dilution. In order to normalize the inner filter and self-absorption effects, the excitation was always carried out less than 0.05 OD. The spectra were recorded in a wavelength range of 300–500 nm. All studies were done at 25°C with the temperature of the samples measured in the cuvette with an accuracy of ± 0.2°C.
The protein-ligand interactions were investigated by monitoring changes in the intrinsic protein fluorescence emission (θexc=295 nm). We applied ideal fluorescence titration and incubation methods for their intrinsic sensitivity and simplicity. For this purpose, Con A (1.8 µM) was incubated at 4°C overnight with increasing concentrations of MnTMPyP, ZnTPPS, and FeTMPyP. […] Applied porphyrin concentrations were consistent with minimizing artifacts due to aggregation phenomena. Con A-adenine interactions were studied by overnight incubation (at 4°C). The obtained experimental data were processed by non-linear and linear regression analysis, computed by a GraphPad Prism program and presented in figures comprising three independent sets of experiments.

[2] = test system: cancer cell lines (Du-145, HD-LAPC-4, Hep-G2, HI-LAPC-4, LnCAP, PANC-1, and PC-3); set-up: method as in PMID 20735206; details: combined with an ascorbic acid; cited from earlier work
[3] = test system: G361 (a human melanoma cell line); set-up: method as in PMID 18645224; details: G361 cells; cited from earlier work
[4] = pH 6.8, read-out: Dissociation constants (KD) for the interaction

Row | Compound | effect on Trp fluorescence emission of Con A [1] | Kd [1, 4] [nM] | also measured
1 | 5,10,15,20-Tetrakis(4-sulfonatophenyl)-porphyrin-Au(III)chloride [AuTPPS] | fluorescence quenching |  | 
2 | C[n+]1ccc(-c2c3nc(c(-c4cc[n+](C)cc4)c4ccc([n-]4)c(-c4cc[n+](C)cc4)c4nc(c(-c5cc[n+](C)cc5)c5ccc2[n-]5)C=C4)C=C3)cc1.[Fe+3] [FeTMPyP, 5,10,15,20-Tetrakis (N-methyl 4-pyridyl)-porphyrin Fe(III)] |  | 950 ± 130 | Hill slope (h) [1]: 1.89±0.46; blue shift of the emission maximum [1]: 5 nm
3 | C[n+]1ccc(-c2c3nc(c(-c4cc[n+](C)cc4)c4ccc([n-]4)c(-c4cc[n+](C)cc4)c4nc(c(-c5cc[n+](C)cc5)c5ccc2[n-]5)C=C4)C=C3)cc1.[Cl-].[Cl-].[Cl-].[Cl-].[Cl-].[Mn+3] [MnTMPyP, 5,10,15,20-Tetrakis (N-methyl-4-pyridyl)-porphyrin-Mn(III)pentachloride] | fluorescence quenching | 1890 ± 540 | cytotoxic effect [2]: potent synergistic cytotoxic effect
4 | O=S(=O)([O-])c1ccc(-c2c3nc(c(-c4ccc(S(=O)(=O)[O-])cc4)c4ccc([nH]4)c(-c4ccc(S(=O)(=O)[O-])cc4)c4nc(c(-c5ccc(S(=O)(=O)[O-])cc5)c5ccc2[nH]5)C=C4)C=C3)cc1.[Zn+2].[Zn+2] [ZnTPPS, 5,10,15,20-Tetrakis (4-sulfonatophenyl)-porphyrin-zinc(II)] | increase in the Trp fluorescence |  | red shift of the emission maximum position [1]: 10 nm; cell death [3]: induces cell death
5 | Nc1ncnc2[nH]cnc12 [adenine] | fluorescence quenching |  | Kd [1]: 380 ± 80 nM
